Results as given in PMC5667895, “Cellodextrin phosphorylase from Ruminiclostridium thermocellum: X-ray crystal structure and substrate specificity analysis” (Carbohydrate Research, 2017).

Legend:
[1] = molecular target: T1, cellodextrin phosphorylase (CDP) (Acetivibrio thermocellus, UniProt Q93HT8); test: capillary electrophoresis competition assay of glucan polymerization; type: biochemical
T1 construct: gene cdp-ym4

[2] = molecular target: T1, cellodextrin phosphorylase (CDP); test: X-ray crystallography, […] Å; type: binding
[3] = substrate: OC[C@H]1O[C@@H](Oc2ccccc2)[C@H](O)[C@@H](O)[C@@H]1O; test: phosphate release assay, Michaelis-Menten fit; type: biochemical, Acetivibrio thermocellus; settings: acceptor, synthetic direction, 10 mM Glc-1-P, HEPES 50 mM pH 7.5, 21 °C

## OC1OC[C@@H](O[C@@H]2OC[C@@H](O[C@@H]3OC[C@@H](O)[C@H](O)[C@H]3O)[C@H](O)[C@H]2O)[C@H](O)[C@H]1O (stereo partly drawn) [(β-1→4-Xyl)3]
[1]; 10 mM xylotriose vs 13.5 μM (β-1→4-Glc)6-APTS, 10 mM Glc-1-P, HEPES 50 mM pH 7.5, 40 °C, acceptor competition
  capillary electrophoresis competition assay of glucan polymerization: suggesting binding of xylotriose to the active site of the enzyme

## O=P(O)(O)O [phosphate]
[2]; crystal grown with 10 mM phosphate buffer, active site, adjacent to the glucan
  X-ray crystallography, 3.0 Å: interpreted as a cellotetraose molecule with an adjacent phosphate ion

## N[C@H]1[C@H](O[C@H]2[C@H](O)[C@@H](O)[C@H](O[C@H]3[C@H](O)[C@@H](O)C(O)O[C@@H]3CO)O[C@@H]2CO)O[C@H](CO)[C@@H](O)[C@@H]1O (stereo partly drawn) [(β-1→4-GlcN(Glc)2)]
[1]; 5 mM trisaccharide vs 0.5 mM (β-1→4-Glc)3-APTS, 50 mM Glc-1-P, HEPES 50 mM pH 7.6, 40 °C, acceptor competition, also an acceptor substrate
  capillary electrophoresis competition assay of glucan polymerization: the average extension of (β-1→4-Glc)3-APTS reduced substantially

## OC[C@H]1O[C@@H](O[C@H]2[C@H](O)[C@@H](O)[C@H](O[C@H]3[C@H](O)[C@@H](O)[C@H](O[C@H]4[C@H](O)[C@@H](O)C(O)O[C@@H]4CO)O[C@@H]3CO)O[C@@H]2CO)[C@H](O)[C@@H](O)[C@@H]1O (stereo partly drawn) [(β-1→4-Glc)4]
[2]; crystal soaked with 10 mM cellohexaose, density modelled as cellotetraose, with phosphate, active site subsites −1 to +3
  X-ray crystallography, 3.0 Å: additional electron density in the active site cleft, which was interpreted as a cellotetraose molecule

## O=P(O)(O)O[C@H]1O[C@H](CO)[C@@H](O)[C@H](O)[C@@H]1O [Man-1-P]
[1]; 10 mM Man-1-P vs 1 mM Glc-1-P and 2 μM (β-1→4-Glc)6-APTS, HEPES 50 mM pH 7.5, 40 °C, competitive with donor
  capillary electrophoresis competition assay of glucan polymerization: Man-1-P caused a great decrease in glucan oligomer length

B1: cellodextrin phosphorylase (CDP) (Acetivibrio thermocellus) (protein)
chain: MITKVTARNNKITPVELLNQKFGNKINLGNFADAVFTDAAFKNVAGIANLPMKAPVMQVLMENCIVSKYLKQFVPDRSVCFVEEGQKFYIVLEDGQKIEVPEDVNKALKATVSDVKHWAGYLTEDGEHVIDLLKPAPGPHFYVNLLIGNRLGFKRTLQTTPKSVVDRFGRGSFRSHAATQVLATRFDMRQEENGFPANRQFYLYEDGKQIFYSALIDDNIVEATCKHSCNRTVIKYKTACNLEITRTIFLVPHKKGFPLATELQRIEIKNASDKARNLSITYTGMFGTGAVHAIFEDVTYTNVIMQSAALYNDKGEFIGITPDYYPEEFKQDTRFVTMIVRNGDEKSFPQSFCTDYNDFVGTGTLEHPAGGCNLNNKLNRKGPGFFALGAPFTVEPGKTVIIDTFTGLSSSKDNENYSDAVMLRELDNLLRYFEKSESVEETLNEIINFHENYGKYFQFNTGNKLFDSGFNRNLAFQVLYQTFMSRSFGQTQKGYREIGFREIQDLFASMYYFINIGYQDFVKELLFEWTANVYKMGYANHNFYWVGKQPGLYSDDSLWLLQAYYRYIIYTKDTSVLNEEVPVADGNNEKRAVRETLKAIIQYSACISVGDHGLPLLDLADWNDCLKIASNSIDGATKEKLYYEQLKKTNGKYGDRFMSDYSESVMNAFLLKLAIDHLAEIATLDNDTQLAQQMSELSKEVTDRIQKHAWKENFFARVLINRYKDGSYTYLGAKGDKLSADPNIDGVYFLNSFAWSVLSDVATDEQIAIMVDVIKKHLLTPYGLRLVTPADLNKIANDTATGHYFFGDRENGAVFKHASMMAVAALIKAAKKVKDNELAKEMARIAYFMIDLVLPYKNLENPFQVAGNPRICTQYINTDTGENIGPLLSGTATWLNLNLISLAGIEYTRDGISFNPILREEETQLNFTLKAPKCSYKFSITKPVGFARMESSEYELFVDGQKIDNTVIPMYTDEKEHIVTLKFK
[3]
  Km: 24 ± 13 mM
  kcat: 15 ± 6.3 s⁻¹
  kcat/Km: 630 M⁻¹ s⁻¹
